Source: the supplement of paper PMC12463676, “Small-molecule dissolution of stress granules by redox modulation benefits ALS models” (Nature Chemical Biology, 2025)

Legend:
potassium arsenate = compound: O=[As]([O-])(O)O.[K+] [potassium arsenate]; experiment: thermal stability z-score vs DMSO; higher = more thermally stabilized by treatment; settings: HeLa; arsenate concentration 1 mM
Protocol: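 Cellular thermal proteome profiling in HeLa cells treated with 1 mM arsenate for 1 h (DMSO pretreatment), heated to ten temperatures (37-66.3 °C). Soluble protein was quantified by TMT mass spectrometry relative to DMSO controls; the thermal stability score was transformed to a z-score; mean of n = 3 experiments.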

lipoamide = compound: NC(=O)CCCCC1CCSS1 [lipoamide]; experiment: as above; settings: HeLa, lipoamide concentration 100 µM
Protocol: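 Cellular thermal proteome profiling in HeLa cells. Cells were treated with 100 µM lipoamide for 1 h, with or without 1 mM arsenate for a further 1 h, then heated to ten temperatures (37-66.3 °C), and soluble protein was quantified by TMT mass spectrometry relative to 0.1% DMSO controls. The thermal stability score (sum of log2 fold changes minus the abundance score) was transformed to a z-score; mean of n = 3 experiments.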

[1] = arsenate co-treatment: 1 mM arsenate 1 h
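Further: each temperature applied for 3 min, abundance score taken as mean log2 fold change at the two lowest temperatures, z-score obtained by mean subtraction and division by SD.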

Sequence of UniProt Q05682 (Q05682 whole entry): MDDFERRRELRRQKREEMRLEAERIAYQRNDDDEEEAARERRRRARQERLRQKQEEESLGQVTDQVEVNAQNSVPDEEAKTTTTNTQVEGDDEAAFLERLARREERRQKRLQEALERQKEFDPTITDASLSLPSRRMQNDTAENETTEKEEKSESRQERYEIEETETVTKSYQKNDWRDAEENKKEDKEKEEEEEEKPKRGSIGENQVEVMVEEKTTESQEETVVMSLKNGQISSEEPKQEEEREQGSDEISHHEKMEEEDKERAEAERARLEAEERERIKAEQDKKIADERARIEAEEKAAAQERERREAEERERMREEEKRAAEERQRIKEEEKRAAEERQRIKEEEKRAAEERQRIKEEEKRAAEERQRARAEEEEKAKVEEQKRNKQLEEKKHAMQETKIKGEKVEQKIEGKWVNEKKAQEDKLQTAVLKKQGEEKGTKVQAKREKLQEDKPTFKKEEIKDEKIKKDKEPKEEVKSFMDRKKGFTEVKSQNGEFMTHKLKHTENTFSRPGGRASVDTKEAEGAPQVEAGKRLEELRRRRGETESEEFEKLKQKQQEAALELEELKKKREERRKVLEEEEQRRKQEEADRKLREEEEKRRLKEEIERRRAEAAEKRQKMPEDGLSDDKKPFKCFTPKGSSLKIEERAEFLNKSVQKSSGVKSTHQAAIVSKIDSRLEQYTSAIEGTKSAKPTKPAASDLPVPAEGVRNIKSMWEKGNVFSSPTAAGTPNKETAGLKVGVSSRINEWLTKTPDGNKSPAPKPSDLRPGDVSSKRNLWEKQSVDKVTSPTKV
Sequence of UniProt Q15637 (Q15637 whole entry): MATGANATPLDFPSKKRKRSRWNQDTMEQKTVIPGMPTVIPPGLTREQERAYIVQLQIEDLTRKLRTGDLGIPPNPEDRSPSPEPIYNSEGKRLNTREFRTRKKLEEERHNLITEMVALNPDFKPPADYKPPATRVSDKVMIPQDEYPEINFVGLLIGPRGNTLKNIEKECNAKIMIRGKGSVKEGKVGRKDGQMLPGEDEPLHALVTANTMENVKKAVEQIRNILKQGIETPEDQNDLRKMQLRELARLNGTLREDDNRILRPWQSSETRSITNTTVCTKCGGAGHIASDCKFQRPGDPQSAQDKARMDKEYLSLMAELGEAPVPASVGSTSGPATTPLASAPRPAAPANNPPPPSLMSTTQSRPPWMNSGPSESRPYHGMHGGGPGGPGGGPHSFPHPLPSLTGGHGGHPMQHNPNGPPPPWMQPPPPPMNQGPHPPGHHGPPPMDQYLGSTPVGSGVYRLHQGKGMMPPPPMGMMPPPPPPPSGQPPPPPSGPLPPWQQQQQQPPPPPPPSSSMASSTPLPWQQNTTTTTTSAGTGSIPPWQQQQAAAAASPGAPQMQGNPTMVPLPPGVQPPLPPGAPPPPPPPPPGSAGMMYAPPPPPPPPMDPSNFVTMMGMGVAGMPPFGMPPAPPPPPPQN
Sequence of UniProt Q9UFN0 (Q9UFN0 whole entry): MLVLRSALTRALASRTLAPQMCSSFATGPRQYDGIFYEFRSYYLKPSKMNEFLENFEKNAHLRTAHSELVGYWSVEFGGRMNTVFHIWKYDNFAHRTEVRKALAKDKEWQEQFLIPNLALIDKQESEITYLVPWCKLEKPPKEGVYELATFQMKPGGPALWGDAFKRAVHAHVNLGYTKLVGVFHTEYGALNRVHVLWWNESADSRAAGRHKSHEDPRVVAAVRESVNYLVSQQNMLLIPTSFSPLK
Sequence of UniProt O00257 (O00257 whole entry): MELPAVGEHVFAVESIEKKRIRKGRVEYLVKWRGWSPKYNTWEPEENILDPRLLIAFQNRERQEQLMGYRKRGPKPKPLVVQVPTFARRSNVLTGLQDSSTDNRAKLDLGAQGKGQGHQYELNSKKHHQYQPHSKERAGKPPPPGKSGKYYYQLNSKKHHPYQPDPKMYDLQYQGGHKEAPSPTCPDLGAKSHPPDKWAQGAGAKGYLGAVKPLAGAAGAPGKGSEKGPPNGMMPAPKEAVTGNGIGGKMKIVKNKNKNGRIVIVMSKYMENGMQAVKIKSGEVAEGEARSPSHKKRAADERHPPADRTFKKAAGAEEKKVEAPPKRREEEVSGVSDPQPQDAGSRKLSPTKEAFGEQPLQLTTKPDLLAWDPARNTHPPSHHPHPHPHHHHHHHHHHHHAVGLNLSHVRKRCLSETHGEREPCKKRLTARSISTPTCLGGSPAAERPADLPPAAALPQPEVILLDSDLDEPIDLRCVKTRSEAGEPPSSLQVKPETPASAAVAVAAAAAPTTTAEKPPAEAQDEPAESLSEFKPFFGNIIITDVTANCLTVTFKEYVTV
Sequence of UniProt Q9UPQ3 (Q9UPQ3 whole entry): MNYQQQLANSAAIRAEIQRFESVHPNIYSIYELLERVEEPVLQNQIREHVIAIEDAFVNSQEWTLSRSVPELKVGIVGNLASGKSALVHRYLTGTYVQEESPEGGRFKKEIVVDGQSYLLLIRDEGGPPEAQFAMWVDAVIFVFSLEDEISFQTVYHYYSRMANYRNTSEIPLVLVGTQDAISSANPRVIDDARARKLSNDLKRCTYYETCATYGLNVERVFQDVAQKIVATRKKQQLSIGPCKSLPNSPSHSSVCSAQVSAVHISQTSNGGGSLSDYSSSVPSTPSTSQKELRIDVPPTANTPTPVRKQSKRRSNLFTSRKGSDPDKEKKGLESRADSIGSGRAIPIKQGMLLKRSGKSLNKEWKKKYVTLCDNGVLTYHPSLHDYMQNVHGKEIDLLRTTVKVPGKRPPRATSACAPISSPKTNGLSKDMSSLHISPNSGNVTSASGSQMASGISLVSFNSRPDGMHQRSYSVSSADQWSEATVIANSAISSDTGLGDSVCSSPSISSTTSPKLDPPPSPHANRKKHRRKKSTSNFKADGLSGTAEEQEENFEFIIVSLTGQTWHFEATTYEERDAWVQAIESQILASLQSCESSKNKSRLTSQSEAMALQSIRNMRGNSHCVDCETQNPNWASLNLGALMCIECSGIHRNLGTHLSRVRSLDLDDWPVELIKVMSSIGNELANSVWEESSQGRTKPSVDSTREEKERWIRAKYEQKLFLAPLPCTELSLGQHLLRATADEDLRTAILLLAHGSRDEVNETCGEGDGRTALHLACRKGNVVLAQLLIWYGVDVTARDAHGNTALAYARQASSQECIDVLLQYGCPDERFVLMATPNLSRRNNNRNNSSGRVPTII
Sequence of UniProt Q9NZJ9 (Q9NZJ9 whole entry): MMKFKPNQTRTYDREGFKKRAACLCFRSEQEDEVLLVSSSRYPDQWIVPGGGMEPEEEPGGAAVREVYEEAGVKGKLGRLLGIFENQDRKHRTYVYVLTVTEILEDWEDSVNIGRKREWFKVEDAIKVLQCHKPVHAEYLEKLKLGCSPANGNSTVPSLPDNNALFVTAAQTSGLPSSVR
Sequence of UniProt Q92503 (Q92503 whole entry): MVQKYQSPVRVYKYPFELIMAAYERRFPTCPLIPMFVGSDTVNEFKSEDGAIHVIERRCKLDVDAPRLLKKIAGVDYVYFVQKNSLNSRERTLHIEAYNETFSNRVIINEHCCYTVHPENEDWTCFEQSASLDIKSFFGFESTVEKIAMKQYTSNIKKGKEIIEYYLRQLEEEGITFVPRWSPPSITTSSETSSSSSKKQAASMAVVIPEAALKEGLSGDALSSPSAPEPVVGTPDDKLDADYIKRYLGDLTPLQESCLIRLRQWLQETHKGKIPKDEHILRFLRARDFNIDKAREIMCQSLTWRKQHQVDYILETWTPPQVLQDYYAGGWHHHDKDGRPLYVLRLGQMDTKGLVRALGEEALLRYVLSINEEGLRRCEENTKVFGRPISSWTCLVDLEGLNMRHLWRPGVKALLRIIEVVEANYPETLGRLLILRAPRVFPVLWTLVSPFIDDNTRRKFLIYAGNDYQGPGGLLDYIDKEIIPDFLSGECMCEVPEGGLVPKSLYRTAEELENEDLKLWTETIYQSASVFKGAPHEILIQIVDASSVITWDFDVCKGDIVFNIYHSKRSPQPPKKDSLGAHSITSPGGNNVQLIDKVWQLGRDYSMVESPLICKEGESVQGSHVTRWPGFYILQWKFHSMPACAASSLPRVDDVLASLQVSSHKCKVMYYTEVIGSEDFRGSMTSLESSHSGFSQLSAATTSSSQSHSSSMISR
Sequence of UniProt Q99661 (Q99661 whole entry): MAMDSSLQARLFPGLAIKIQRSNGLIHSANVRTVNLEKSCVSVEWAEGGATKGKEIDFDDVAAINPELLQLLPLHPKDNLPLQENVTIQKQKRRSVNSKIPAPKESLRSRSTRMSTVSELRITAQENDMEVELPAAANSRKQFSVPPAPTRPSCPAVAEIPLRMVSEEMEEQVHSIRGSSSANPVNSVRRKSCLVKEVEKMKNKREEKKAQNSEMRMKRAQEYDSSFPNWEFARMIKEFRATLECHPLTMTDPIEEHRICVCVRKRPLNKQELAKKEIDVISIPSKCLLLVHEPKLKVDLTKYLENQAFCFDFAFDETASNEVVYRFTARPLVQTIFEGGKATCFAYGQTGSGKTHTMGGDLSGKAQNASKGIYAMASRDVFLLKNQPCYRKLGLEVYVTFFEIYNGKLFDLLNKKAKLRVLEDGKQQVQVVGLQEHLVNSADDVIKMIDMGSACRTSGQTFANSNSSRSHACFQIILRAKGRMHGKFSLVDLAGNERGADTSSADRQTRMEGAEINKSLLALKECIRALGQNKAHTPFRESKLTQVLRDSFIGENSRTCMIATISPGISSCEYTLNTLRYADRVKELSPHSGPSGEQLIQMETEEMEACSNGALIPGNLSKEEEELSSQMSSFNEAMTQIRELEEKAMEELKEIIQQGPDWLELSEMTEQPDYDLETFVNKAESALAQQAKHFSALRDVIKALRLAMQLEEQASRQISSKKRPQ
Sequence of UniProt Q9GZU8 (Q9GZU8 whole entry): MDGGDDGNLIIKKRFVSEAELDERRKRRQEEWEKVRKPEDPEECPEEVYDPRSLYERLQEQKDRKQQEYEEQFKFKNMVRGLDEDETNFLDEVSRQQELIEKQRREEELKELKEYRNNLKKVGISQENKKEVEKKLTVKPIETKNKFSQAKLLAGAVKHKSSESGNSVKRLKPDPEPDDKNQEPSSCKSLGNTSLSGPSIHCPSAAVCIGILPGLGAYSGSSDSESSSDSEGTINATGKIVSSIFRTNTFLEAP

Target	thermal stability z-score (potassium arsenate)	thermal stability z-score (lipoamide; [1])	thermal stability z-score (lipoamide; arsenate co-treatment: none)
PSAP (UniProt P07602)	-0.336	0.0503	-0.136
ADRM1 (UniProt Q16186)	0.823	1.21	0.976
ZNF629 (UniProt Q9UEG4)	-0.114	0.162	-0.369
HNRNPH3 (UniProt P31942)	-0.243	-0.175	0.0351
FAM192A (UniProt Q9GZU8)	-0.58	-0.00729	0.455
ELF1 (UniProt P32519)	-0.287	-0.422	-0.185
KIF3B (UniProt O15066)	-0.47	0.285	-0.318
DFFA (UniProt O00273)	0.443	0.376	0.555
ATP6AP1 (UniProt Q15904)	0.569	-0.952	-0.601
NCLN (UniProt Q969V3)	0.537	-3.4	-2.85
CALD1 (UniProt Q05682)	0.103	0.261	0.218
CDCA3 (UniProt Q99618)	-0.233	0.196	0.0335
ATP5J2 (UniProt P56134)	-0.0845	0.46	0.37
SPAG9 (UniProt O60271)	0.732	0.012	-0.0736
CAD (UniProt P27708)	-0.201	-0.284	-1.08
PTAR1 (UniProt Q7Z6K3)	0.1	0.548	0.408
UCHL5 (UniProt Q9Y5K5)	0.855	0.0058	0.138
OSBPL11 (UniProt Q9BXB4)	0.989	-0.766	-0.267
EPB41 (UniProt P11171)	-0.0292	-0.424	-0.262
AHCYL2 (UniProt Q96HN2)	-1.74	0.295	0.547
TMOD1 (UniProt P28289)	0.225	0.167	0.298
DNAJC7 (UniProt Q99615)	-0.656	-0.214	0.475
S100A16 (UniProt Q96FQ6)	0.517	1.33	1.29
ATG5 (UniProt Q9H1Y0)	-0.959	-0.255	-0.342

Target	thermal stability z-score (potassium arsenate)	thermal stability z-score (lipoamide; [1])	thermal stability z-score (lipoamide; arsenate co-treatment: none)
CKS2 (UniProt P33552)	0.179	0.199	0.17
DMWD (UniProt Q09019)	0.407	0.459	-0.167
PHACTR2 (UniProt O75167)	-0.387	0.56	-0.408
NUP133 (UniProt Q8WUM0)	-0.139	-0.312	-0.456
GALNT2 (UniProt Q10471)	0.25	-1.83	-1.16
SEC14L1 (UniProt Q92503)	-0.169	-0.149	-0.0215
PEX19 (UniProt P40855)	1.13	1.96	1.51
KIF2C (UniProt Q99661)	0.56	-0.47	-0.0787
UNG (UniProt P13051)	-0.665	-0.772	-1.08
NT5C (UniProt Q8TCD5)	-0.982	-0.442	-0.516
BCL7C (UniProt Q8WUZ0)	0.0252	0.0654	0.0122
SF1 (UniProt Q15637)	0.681	0.425	0.249
EEF2 (UniProt P13639)	-0.39	-0.0517	0.0227
STX8 (UniProt Q9UNK0)	0.248	-0.198	0.507
GMPPB (UniProt Q9Y5P6)	-0.104	-0.503	-0.625
VTA1 (UniProt Q9NP79)	-0.12	0.703	0.296
IRAK4 (UniProt Q9NWZ3)	-0.11	-0.11	-0.0699
ASF1B (UniProt Q9NVP2)	-0.169	-0.0916	-0.0291
TNFAIP3 (UniProt P21580)	-0.522	-0.409	-0.303
CHKA (UniProt P35790)	-1.4	0.498	0.357
TOMM20 (UniProt Q15388)	1.73	0.133	1.67
PRKCSH (UniProt P14314)	0.768	-2.77	-2.47
ABCB7 (UniProt O75027)	0.456	0.117	0.0859
EIF3J (UniProt O75822)	0.444	0.395	-0.118

Target	thermal stability z-score (potassium arsenate)	thermal stability z-score (lipoamide; [1])	thermal stability z-score (lipoamide; arsenate co-treatment: none)
SGPL1 (UniProt O95470)	-0.584	0.442	0.255
TBC1D2 (UniProt Q9BYX2)	0.225	-0.151	0.0824
NIPSNAP3A (UniProt Q9UFN0)	0.337	0.144	0.432
XPO4 (UniProt Q9C0E2)	-0.27	-0.237	-0.0735
FLNC (UniProt Q14315)	0.567	0.266	0.657
OGT (UniProt O15294)	0.254	-0.039	-0.08
ACOT9 (UniProt Q9Y305)	-0.344	0.00609	0.283
CDC123 (UniProt O75794)	3.29	0.8	-0.214
CHAMP1 (UniProt Q96JM3)	-0.567	-0.202	-0.497
SGK1 (UniProt O00141)	0.187	0.0815	-0.0515
CTR9 (UniProt Q6PD62)	0.243	0.156	0.203
DENND1A (UniProt Q8TEH3)	-0.185	-0.118	-0.0262
SYNCRIP (UniProt O60506)	-0.00709	0.0582	0.179
ACBD6 (UniProt Q9BR61)	-0.675	-1.02	-0.756
NUDT4 (UniProt Q9NZJ9)	-0.881	-0.239	-0.659
NOL3 (UniProt O60936)	0.236	0.615	0.549
TYMS (UniProt P04818)	14	1.42	0.818
CBX4 (UniProt O00257)	0.529	-0.406	0.212
ZFYVE27 (UniProt Q5T4F4)	0.0943	-0.0642	-0.19
TMSB10 (UniProt P63313)	0.014	0.8	0.288
FAM134C (UniProt Q86VR2)	1.35	0.622	-0.494
AGAP1 (UniProt Q9UPQ3)	-1.91	-1.59	-2.08
FAM20B (UniProt O75063)	0.335	-1.35	-1.05
